The values that follow come from ChEMBL document CHEMBL4393668, “Discovery and Characterization of XY101, a Potent, Selective, and Orally Bioavailable RORγ Inverse Agonist for Treatment of Castration-Resistant Prostate Cancer” (J Med Chem, 2019).

Data set [1] has as its target T1, Nuclear receptor ROR-gamma (Homo sapiens) (UniProt P51449).
T1 sequence (whole entry): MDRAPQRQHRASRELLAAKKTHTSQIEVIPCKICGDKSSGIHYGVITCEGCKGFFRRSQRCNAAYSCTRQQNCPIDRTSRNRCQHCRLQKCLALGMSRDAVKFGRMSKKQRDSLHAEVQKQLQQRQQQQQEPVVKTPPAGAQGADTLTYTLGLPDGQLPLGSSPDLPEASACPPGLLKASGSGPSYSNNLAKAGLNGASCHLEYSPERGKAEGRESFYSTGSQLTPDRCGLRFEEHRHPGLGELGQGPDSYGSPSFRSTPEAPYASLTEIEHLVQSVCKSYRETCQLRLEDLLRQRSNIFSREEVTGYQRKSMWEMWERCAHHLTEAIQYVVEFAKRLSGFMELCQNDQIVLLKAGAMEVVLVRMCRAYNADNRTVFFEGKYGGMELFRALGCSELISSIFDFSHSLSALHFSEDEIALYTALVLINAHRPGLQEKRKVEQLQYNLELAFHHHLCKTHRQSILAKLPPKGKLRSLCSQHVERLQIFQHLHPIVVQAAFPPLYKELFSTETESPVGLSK

Data set [2] deals with T2, Nuclear receptor ROR-alpha (Homo sapiens, UniProt P35398).
T2 sequence (P35398 whole entry): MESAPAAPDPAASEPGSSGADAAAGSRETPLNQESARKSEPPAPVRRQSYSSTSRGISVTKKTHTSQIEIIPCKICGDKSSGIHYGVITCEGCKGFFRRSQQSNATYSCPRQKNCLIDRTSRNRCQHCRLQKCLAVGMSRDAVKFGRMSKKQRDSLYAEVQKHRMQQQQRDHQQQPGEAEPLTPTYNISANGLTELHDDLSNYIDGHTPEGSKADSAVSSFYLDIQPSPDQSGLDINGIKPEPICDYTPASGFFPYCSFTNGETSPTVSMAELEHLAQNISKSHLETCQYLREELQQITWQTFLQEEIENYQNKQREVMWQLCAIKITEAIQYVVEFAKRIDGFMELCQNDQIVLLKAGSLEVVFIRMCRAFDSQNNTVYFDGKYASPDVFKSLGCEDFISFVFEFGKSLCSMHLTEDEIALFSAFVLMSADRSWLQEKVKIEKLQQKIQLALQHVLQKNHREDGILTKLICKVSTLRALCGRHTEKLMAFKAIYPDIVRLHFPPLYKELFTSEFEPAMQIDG

The target in data set [3] is T3, Nuclear receptor ROR-beta (Homo sapiens, UniProt Q92753).
T3 sequence (Q92753 whole entry): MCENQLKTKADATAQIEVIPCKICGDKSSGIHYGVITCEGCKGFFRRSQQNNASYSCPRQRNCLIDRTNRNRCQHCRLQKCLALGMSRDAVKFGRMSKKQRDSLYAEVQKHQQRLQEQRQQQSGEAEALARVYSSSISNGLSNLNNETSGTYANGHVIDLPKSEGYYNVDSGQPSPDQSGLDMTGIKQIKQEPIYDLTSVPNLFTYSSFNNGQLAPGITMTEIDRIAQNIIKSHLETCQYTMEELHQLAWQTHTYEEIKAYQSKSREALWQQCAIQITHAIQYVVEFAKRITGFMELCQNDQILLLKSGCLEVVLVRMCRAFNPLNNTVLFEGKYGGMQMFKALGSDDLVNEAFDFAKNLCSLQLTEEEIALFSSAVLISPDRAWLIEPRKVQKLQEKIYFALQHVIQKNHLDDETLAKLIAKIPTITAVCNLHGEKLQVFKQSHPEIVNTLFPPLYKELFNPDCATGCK

Data set [4] has as its target T4, Oxysterols receptor LXR-alpha (Homo sapiens, UniProt Q13133).
T4 sequence (Q13133 whole entry): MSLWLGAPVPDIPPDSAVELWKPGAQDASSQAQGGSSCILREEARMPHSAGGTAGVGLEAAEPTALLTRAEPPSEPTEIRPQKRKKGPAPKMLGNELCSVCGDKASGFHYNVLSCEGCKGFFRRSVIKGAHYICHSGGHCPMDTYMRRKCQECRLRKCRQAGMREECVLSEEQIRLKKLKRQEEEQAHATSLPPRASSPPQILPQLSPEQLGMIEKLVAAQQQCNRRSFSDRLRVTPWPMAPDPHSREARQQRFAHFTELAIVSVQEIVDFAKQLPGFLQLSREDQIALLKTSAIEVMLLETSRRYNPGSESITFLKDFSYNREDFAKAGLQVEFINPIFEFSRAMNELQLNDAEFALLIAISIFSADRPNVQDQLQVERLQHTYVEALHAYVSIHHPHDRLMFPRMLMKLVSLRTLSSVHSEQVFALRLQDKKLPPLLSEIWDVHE

The target of data set [5] is T5, Bile acid receptor (Homo sapiens, UniProt Q96RI1).
T5 sequence (Q96RI1 whole entry): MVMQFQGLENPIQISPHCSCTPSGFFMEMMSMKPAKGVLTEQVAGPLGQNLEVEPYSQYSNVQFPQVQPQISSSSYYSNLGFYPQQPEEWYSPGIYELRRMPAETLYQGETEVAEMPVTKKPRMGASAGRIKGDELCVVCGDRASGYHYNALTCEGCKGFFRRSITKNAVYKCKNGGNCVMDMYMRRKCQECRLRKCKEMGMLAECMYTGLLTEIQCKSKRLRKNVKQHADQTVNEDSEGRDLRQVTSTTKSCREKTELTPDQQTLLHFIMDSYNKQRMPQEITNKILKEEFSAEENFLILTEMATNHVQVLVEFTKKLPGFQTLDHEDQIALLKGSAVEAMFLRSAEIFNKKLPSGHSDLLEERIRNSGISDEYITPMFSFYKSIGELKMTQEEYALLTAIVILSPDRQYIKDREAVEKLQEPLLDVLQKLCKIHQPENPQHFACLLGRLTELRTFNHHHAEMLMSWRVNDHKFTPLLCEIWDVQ

For data set [6] the following is noted: rat, in vivo, iv, 2 mg/kg.
Description: Apparent volume of distribution in Sprague-Dawley rat at 2 mg/kg, iv
Data set [7] in a line: in vivo. The note with it: Sprague-Dawley, rat, iv, 2 mg/kg.
Data set [8] can be described thus: in vivo. As to conditions: Sprague-Dawley, rat, iv, 2 mg/kg; call rule not given here. The source holds these as a separate data set.
A short description of data set [9]: in vivo. As to conditions: Sprague-Dawley, rat, iv, 2 mg/kg. The source holds these as a separate data set.
Data set [10] can be described thus: in vivo. As to conditions: Sprague-Dawley, rat, iv, 2 mg/kg. The source holds these as a separate data set.
The nature of data set [11]: in vivo. As to conditions: Sprague-Dawley, rat, iv, 2 mg/kg. This is another data set of the same source.
Description: Half life in Sprague-Dawley rat at 2 mg/kg, iv
The nature of data set [12]: in vivo. As to conditions: Sprague-Dawley, rat, po, 10 mg/kg.
Data set [13] in a line: in vivo. The note with it: Sprague-Dawley, rat, po, 10 mg/kg. This is another data set of the same source.
The nature of data set [14]: in vivo. The note with it: Sprague-Dawley, rat, po, 10 mg/kg. The source holds these as a separate data set.
Data set [15] in a line: in vivo. As to conditions: Sprague-Dawley, rat, po, 10 mg/kg. The source holds these as a separate data set.
Data set [16] is described as follows: in vivo. The note with it: Sprague-Dawley, rat, po, 10 mg/kg. The source holds these as a separate data set.
Description: Half life in Sprague-Dawley rat at 10 mg/kg, po
The next data set in a line: in vitro. As to conditions: rat, liver microsomes.
In data set [17] the target is T6, Nuclear receptor ROR-gamma (Homo sapiens, UniProt P51449).
T6 sequence (P51449 whole entry): T1 sequence (whole entry)
As to the kind of experiment: Inverse agonist activity at Gal4-fused RORgamma LBD (unknown origin) expressed in 293T cells measured after 24 hrs by dual-luciferase reporter gene assay. Format: cell-based.

For data set [18], the target named is T7, Bile acid receptor (Homo sapiens) (UniProt Q96RI1).
T7 sequence (whole entry): T5 sequence (Q96RI1 whole entry)
As to the kind of experiment: Inverse agonist activity at Gal4-fused FXR LBD (unknown origin) expressed in 293T cells measured after 24 hrs by dual-luciferase reporter gene assay relative to control. Format: cell-based.

The target in data set [19] is T6, Nuclear receptor ROR-gamma. As to the kind of experiment: Inverse agonist activity at human N-terminal His6-tagged RORgamma (262 to 507 residues) expressed in Escherichia coli BL21 (DE3) assessed as inhibition of biotinylated co-activator SRC1-4 peptide recruitment by alphascreen assay.
Data set [20] concerns the target T2, Nuclear receptor ROR-alpha. The source holds these as a separate data set.
The target of data set [21] is T5, Bile acid receptor. This is another data set of the same source.
For data set [22], the target named is T1, Nuclear receptor ROR-gamma (Homo sapiens). As to the kind of experiment: Inverse agonist activity at Gal4-fused RORgamma LBD (unknown origin) expressed in 293T cells measured after 24 hrs by dual-luciferase reporter gene assay relative to control. Format: cell-based.
The nature of data set [23]: in vivo. The note with it: Sprague-Dawley, rat, po, 10 mg/kg. The source holds these as a separate data set.

Description for in vitro: Stability in rat liver microsomes assessed as parent compound remaining at 10 uM measured after 60 mins by LC-MS/MS analysis

For the molecule `CS(=O)(=O)c1ccc(CC(=O)Nc2ccc(-c3ccc(C(O)(C(F)(F)F)C(F)(F)F)cc3F)cc2)cc1`, in data set [1], the ΔTm was found to be 7.8 °C. Further, the IC50 result (in [2]; in data set [3]; in data set [4]; against Bile acid receptor [5]) was “Not Active” each time. The molecule further returned a Vz in data set [6] of 3544 mg/kg. Moreover, the Cmax is 980 ng/mL in the data set “in vivo [7]” and 1420 ng/mL in “in vivo [12]”. Moreover, the Tmax in the data set “in vivo [8]” is 4.8 min. The AUC(0-t) in the data set “in vivo [9]” came out at 7660 ng·h/mL; in “in vivo [13]”, 21600 ng·h/mL. The AUC(0-inf) worked out at 10400 ng·h/mL in the data set “in vivo [10]” and 24500 ng·h/mL in “in vivo [15]”. Further, the figures for the half-life in “in vivo [11]” and in the data set “in vivo [16]” were 12.7 h and 8.67 h, respectively. Also, the bioavailability in the data set “in vivo [14]” is 52%. Further, in “in vitro”, the share remaining at 1 h, 10 µM was determined as 78%.
As for `CCCCCCC(=O)Nc1ccc(-c2ccc(C(O)(C(F)(F)F)C(F)(F)F)cc2F)cc1`, the IC50 in [17] was 820 nM; in data set [19], 5310 nM; in data set [20] it was 1740 nM; against Bile acid receptor [21] it was 1250 nM; in [3], “Not Active”; in data set [4], “Not Active”. The molecule further came in with a %max in [18] of 93%. Besides, in [1], the ΔTm was 5.8 °C.
`O=C(O)c1ccc(CS(=O)(=O)Nc2ccc(-c3ccc(C(O)(C(F)(F)F)C(F)(F)F)cc3F)cc2)cc1` gave an Activity in data set [22] of 23%. The thermal shift (ΔTm) in data set [1] was 0 °C.
Consider `COC(=O)c1ccc(CS(=O)(=O)Nc2ccc(-c3ccc(C(O)(C(F)(F)F)C(F)(F)F)cc3F)cc2)cc1`, for which the IC50 in data set [17] was 90 nM; in data set [19], 4830 nM; in [2], “Not Active”; in data set [3] it was “Not Active”; in [4] it was “Not Active”; on Bile acid receptor [5], “Not Active”. In addition, in data set [1], the ΔTm stood at 8 °C.
In the case of `O=C(Cc1ccccc1[N+](=O)[O-])Nc1ccc(-c2ccc(C(O)(C(F)(F)F)C(F)(F)F)cc2F)cc1`, in data set [1], the ΔTm was found to be 4.2 °C. Also, the IC50 result (in data set [3]; in [4]; at Bile acid receptor [5]) was “Not Active” in each case. Besides, in data set [6], the Vz was determined as 3425 mg/kg. Further, the figures for the Cmax in the data set “in vivo [7]” and in “in vivo [12]” were 839 ng/mL and 721 ng/mL, respectively. The AUC(0-t) came out at 3340 ng·h/mL in the data set “in vivo [9]” and 3220 ng·h/mL in “in vivo [13]”. The AUC(0-inf) in the data set “in vivo [10]” is 6440 ng·h/mL. The molecule also showed a half-life in “in vivo [11]” of 7.67 h. In addition, the Tmax in the data set “in vivo [23]” was 8 h. The bioavailability in the data set “in vivo [14]” was 19%. Moreover, the amount remaining at 1 h, 10 µM in the data set “in vitro” worked out at 79%.
